What was measured:
[1] = target: T1, Protein cereblon/Interleukin-1 receptor-associated kinase 4 (Homo sapiens, UniProt Q9NWZ3+Q96SW2); test: PROTAC activity at CRBN/IRAK4 in human KARPAS-299 cells assessed as induction of IRAK4 degradation incubated for 24 hrs by TR-FRET assay; type: cell-based
Target sequence in this assay (Q9NWZ3 whole entry): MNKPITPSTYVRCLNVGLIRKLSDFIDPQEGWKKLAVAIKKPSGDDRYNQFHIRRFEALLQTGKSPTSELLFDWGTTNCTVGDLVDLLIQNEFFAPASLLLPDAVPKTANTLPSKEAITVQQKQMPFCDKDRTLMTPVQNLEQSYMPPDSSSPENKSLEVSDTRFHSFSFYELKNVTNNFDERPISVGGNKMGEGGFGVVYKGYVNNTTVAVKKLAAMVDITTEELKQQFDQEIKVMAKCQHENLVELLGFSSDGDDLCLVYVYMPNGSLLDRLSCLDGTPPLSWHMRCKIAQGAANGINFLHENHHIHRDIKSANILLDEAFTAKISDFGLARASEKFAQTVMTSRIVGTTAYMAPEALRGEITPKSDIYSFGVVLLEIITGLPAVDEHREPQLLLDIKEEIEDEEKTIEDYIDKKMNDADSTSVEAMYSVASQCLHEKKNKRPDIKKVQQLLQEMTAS
Target sequence in this assay (Q96SW2 whole entry): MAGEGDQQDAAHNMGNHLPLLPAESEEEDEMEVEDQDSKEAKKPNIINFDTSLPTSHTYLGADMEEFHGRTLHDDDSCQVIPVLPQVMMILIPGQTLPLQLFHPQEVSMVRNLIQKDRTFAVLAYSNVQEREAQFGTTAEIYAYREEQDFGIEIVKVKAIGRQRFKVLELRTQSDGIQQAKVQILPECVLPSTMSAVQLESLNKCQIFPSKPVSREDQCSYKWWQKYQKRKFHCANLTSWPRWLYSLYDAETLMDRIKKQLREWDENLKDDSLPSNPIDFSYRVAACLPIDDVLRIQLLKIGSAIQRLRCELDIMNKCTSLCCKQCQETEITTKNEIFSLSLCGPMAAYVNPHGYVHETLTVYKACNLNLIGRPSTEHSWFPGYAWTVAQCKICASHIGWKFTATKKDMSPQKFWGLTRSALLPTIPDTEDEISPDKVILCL

[2] = target: T1, Protein cereblon/Interleukin-1 receptor-associated kinase 4; test: PROTAC activity at CRBN/IRAK4 in human KARPAS-299 cells assessed as induction of IRAK4 degradation incubated for 24 hrs by TR-FRET assay relative to control; type: cell-based
Target sequence in this assay (Q96SW2 whole entry, looked up): as the sequence (Q96SW2 whole entry) above
Target sequence in this assay (Q9NWZ3 whole entry, looked up): as the sequence (Q9NWZ3 whole entry) above

Row | DC50 [1] [nM] | Emax [2] [%] | Compound
1 | 11 | 99 | CC(C)(O)c1cc2nn([C@H]3C[C@H](N4CCN(C(=O)C5CN(c6cc(F)c([C@H]7CCC(=O)NC7=O)c(F)c6)C5)CC4)C3)cc2cc1NC(=O)c1ccc2cc(C#N)cnn12
2 | 7.1 | 100 | CC(C)(O)c1cc2nn([C@H]3CC[C@H](N4CCN(CCNc5cc(F)c(C6CCC(=O)NC6=O)c(F)c5)CC4)CC3)cc2cc1NC(=O)c1ccc2cc(C#N)cnn12 (some centres not stated)
3 | 5.2 | 94 | CC(C)(O)c1cc2nn(C34CC(N5CCN(CCc6cc(F)c([C@H]7CCC(=O)NC7=O)c(F)c6)CC5)(C3)C4)cc2cc1NC(=O)c1ccc2cc(C#N)cnn12
4 | 3.7 | 99 | CC(C)(O)c1cc2nn([C@H]3CC[C@H](N4CCN(CCc5cc(F)c([C@H]6CCC(=O)NC6=O)c(F)c5)CC4)CC3)cc2cc1NC(=O)c1ccc2cc(C#N)cnn12
5 | 8.3 | 100 | CC(C)(O)c1cc2nn([C@H]3CC[C@H](N4CCN(C5CN(c6cc(F)c([C@H]7CCC(=O)NC7=O)c(F)c6)C5)CC4)CC3)cc2cc1NC(=O)c1ccc2cc(C#N)cnn12
6 | 3.9 | 101 | CC(C)(O)c1cc2nn(C34CCC(N5CCN(CCc6cc(F)c([C@H]7CCC(=O)NC7=O)c(F)c6)CC5)(CC3)CC4)cc2cc1NC(=O)c1ccc2cc(C#N)cnn12

Reference: ChEMBL document CHEMBL5532723, “Advances in Targeted Therapies for Inflammatory Diseases and Cancer: Exploring Cellular Mechanisms and Therapeutic Strategies” (ACS Med Chem Lett, 2024)
